# Test results from ChEMBL document CHEMBL3822383, “Coumarin sulfonamides derivatives as potent and selective COX-2 inhibitors with efficacy in suppressing cancer proliferation and metastasis” (Bioorg Med Chem Lett, 2016).
# Activity calls are given as the source filed them. No cut-off for these calls is given here.
# Assays:
# cells [1] = conditions: Homo sapiens, L02, 24 h
# Description: Antiproliferative activity against human LO2 cells after 24 hrs by MTT assay
# A549 = test: cells; conditions: Homo sapiens, A549, 24 h
# Description: Antiproliferative activity against human A549 cells after 24 hrs by MTT assay
# [2] = target: Prostaglandin G/H synthase 1 (Homo sapiens, UniProt P23219); test: Inhibition of human COX1 using arachidonic acid assessed as production of PGF2alpha after 5 mins by ELISA
# Sequence of Prostaglandin G/H synthase 1 (P23219 whole entry): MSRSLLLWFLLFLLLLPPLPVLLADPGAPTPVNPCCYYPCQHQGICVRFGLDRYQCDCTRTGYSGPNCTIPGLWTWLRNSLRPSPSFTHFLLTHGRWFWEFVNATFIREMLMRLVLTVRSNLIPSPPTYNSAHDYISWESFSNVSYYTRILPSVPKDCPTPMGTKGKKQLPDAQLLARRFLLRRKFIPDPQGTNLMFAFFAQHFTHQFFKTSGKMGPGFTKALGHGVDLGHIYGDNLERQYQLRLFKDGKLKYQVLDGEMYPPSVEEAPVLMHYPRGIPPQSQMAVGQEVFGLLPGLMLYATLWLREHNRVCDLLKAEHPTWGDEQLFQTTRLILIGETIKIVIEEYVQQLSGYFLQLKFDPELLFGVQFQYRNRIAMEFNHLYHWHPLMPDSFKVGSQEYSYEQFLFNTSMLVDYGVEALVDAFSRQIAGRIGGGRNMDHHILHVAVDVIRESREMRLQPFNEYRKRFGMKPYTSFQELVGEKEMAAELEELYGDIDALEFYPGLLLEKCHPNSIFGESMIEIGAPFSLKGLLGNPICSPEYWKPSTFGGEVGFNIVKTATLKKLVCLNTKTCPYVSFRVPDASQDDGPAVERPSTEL
# HeLa [3] = test: cells; conditions: Homo sapiens, 24 h
# Description: Antiproliferative activity against human HeLa cells after 24 hrs by MTT assay
# HepG2 = test: cells; conditions: Homo sapiens, HepG2, 24 h
# Description: Antiproliferative activity against human HepG2 cells after 24 hrs by MTT assay
# cells [4] = conditions: Mus musculus, B16-F10, 24 h
# Description: Antiproliferative activity against mouse B16F10 cells after 24 hrs by MTT assay
# cells [5] = conditions: Homo sapiens, HEK-293T, 24 h
# Description: Antiproliferative activity against human 293T cells after 24 hrs by MTT assay
# HeLa [6] = test: Inhibition of cell adhesion in human HeLa cells assessed as reduction in cell attachment up to 8 uM after 1 hr by MTT assay; format: functional, cell-based
# HeLa [7] = test: Inhibition of PGE2 secretion in human HeLa cells at 0.1 uM after 24 hrs by EIA monoclonal assay; format: functional, cell-based
SMILES,IC50 (A549) [µM],IC50 [2] [µM],IC50 (HeLa [3]) [µM],IC50 (HepG2) [µM],IC50 (cells [4]) [µM],IC50 (cells [5]) [µM],IC50 (cells [1]) [µM],inhibition (HeLa [6]),inhibition (HeLa [7])
NS(=O)(=O)c1ccc(-n2nc(C(=O)N/N=C/c3c(Cl)c4ccccc4oc3=O)cc2-c2ccc(Cl)c(Cl)c2)cc1,23.5,96.6,4.91,5.12,7.45,153,> 300,–,–
COc1cc(-c2cc(C(=O)N/N=C/c3c(Cl)c4ccccc4oc3=O)nn2-c2ccc(S(N)(=O)=O)cc2)cc(OC)c1OC,26.1,49.8,16.2,20,26.2,101,116,–,–
COc1ccc(-c2cc(C(=O)N/N=C/c3c(Cl)c4ccccc4oc3=O)nn2-c2ccc(S(N)(=O)=O)cc2)cc1OC,40.1,69.3,13.1,21.2,19.8,175,187,–,–
Cc1ccc(-c2cc(C(=O)N/N=C/c3c(Cl)c4ccccc4oc3=O)nn2-c2ccc(S(N)(=O)=O)cc2)c(C)c1,28.5,39.5,7.95,6.7,4.68,175,206,–,–
CCOc1ccc(-c2cc(C(=O)N/N=C/c3c(Cl)c4ccccc4oc3=O)nn2-c2ccc(S(N)(=O)=O)cc2)cc1,–,78.5,–,–,–,–,–,–,–
COc1ccc(-c2cc(C(=O)N/N=C/c3c(Cl)c4ccccc4oc3=O)nn2-c2ccc(S(N)(=O)=O)cc2)cc1,31.5,84.3,12,14.7,7.31,> 300,> 300,–,–
NS(=O)(=O)c1ccc(-n2nc(C(=O)N/N=C/c3c(Cl)c4ccccc4oc3=O)cc2-c2ccc(O)cc2)cc1,26.4,> 100,12.4,18.2,21.3,139,163,–,–
NS(=O)(=O)c1ccc(-n2nc(C(=O)N/N=C/c3c(Cl)c4ccccc4oc3=O)cc2-c2ccccc2)cc1,33.5,> 100,9.86,5.76,9.53,180,183,–,–
Cc1ccc(-c2cc(C(=O)N/N=C/c3c(Cl)c4ccccc4oc3=O)nn2-c2ccc(S(N)(=O)=O)cc2)cc1,22.1,89.5,8.81,11.3,6.22,189,> 300,–,–
Cc1ccc(-c2cc(C(=O)N/N=C/c3c(Cl)c4ccccc4oc3=O)nn2-c2ccc(S(N)(=O)=O)cc2)cc1C,24.2,> 100,6.92,4.41,6.93,233,> 300,–,–
COc1cccc(-c2cc(C(=O)N/N=C/c3c(Cl)c4ccccc4oc3=O)nn2-c2ccc(S(N)(=O)=O)cc2)c1,22.4,> 100,7.58,15.7,9.58,107,105,–,–

# Further compounds by falling IC50 (A549), results first:
IC50 (A549) [µM],IC50 [2] [µM],IC50 (HeLa [3]) [µM],IC50 (HepG2) [µM],IC50 (cells [4]) [µM],IC50 (cells [5]) [µM],SMILES,IC50 (cells [1]) [µM],inhibition (HeLa [6]),inhibition (HeLa [7])
20.3,48.2,11.1,5.98,5.28,> 300,Cc1cccc(-c2cc(C(=O)N/N=C/c3c(Cl)c4ccccc4oc3=O)nn2-c2ccc(S(N)(=O)=O)cc2)c1,199,–,–
17.2,> 100,11.7,19.9,20.9,> 300,NS(=O)(=O)c1ccc(-n2nc(C(=O)N/N=C/c3c(Cl)c4ccccc4oc3=O)cc2-c2ccccc2O)cc1,159,–,–
16.2,74.3,3.43,4.74,8.79,155,NS(=O)(=O)c1ccc(-n2nc(C(=O)N/N=C/c3c(Cl)c4ccccc4oc3=O)cc2-c2cccc(F)c2)cc1,206,–,–
15.6,–,7.79,10,14.4,95.3,Cc1ccc(-c2cc(C(F)(F)F)nn2-c2ccc(S(N)(=O)=O)cc2)cc1 [CELECOXIB],98.2,inactive,Active
14.7,> 100,5.46,6.75,15.6,152,NS(=O)(=O)c1ccc(-n2nc(C(=O)N/N=C/c3c(Cl)c4ccccc4oc3=O)cc2-c2cccc(Cl)c2)cc1,168,–,–
14.3,> 100,2.85,5.94,6.41,108,NS(=O)(=O)c1ccc(-n2nc(C(=O)N/N=C/c3c(Cl)c4ccccc4oc3=O)cc2-c2ccccc2F)cc1,148,–,–
12.3,86.2,5.09,6.1,9.12,254,NS(=O)(=O)c1ccc(-n2nc(C(=O)N/N=C/c3c(Cl)c4ccccc4oc3=O)cc2-c2ccccc2Cl)cc1,214,–,–
11.2,53.4,0.94,3.53,9.76,181,NS(=O)(=O)c1ccc(-n2nc(C(=O)N/N=C/c3c(Cl)c4ccccc4oc3=O)cc2-c2ccc(F)cc2)cc1,192,–,–
3.85,42.2,0.52,1.63,4.04,113,NS(=O)(=O)c1ccc(-n2nc(C(=O)N/N=C/c3c(Cl)c4ccccc4oc3=O)cc2-c2ccc([N+](=O)[O-])cc2)cc1,133,–,–
